A short description of test [1]: Fate of ⁵⁹Fe tracer incubated with chelator and injected into normal rats (radioiron distribution and excretion). The test is classed as in vivo. Conditions: for Radioiron Distribution in % Feces / Radioiron Distribution in % Total excretion / Radioiron Distribution in % Urine / Radioiron Distribution in % Blood / Radioiron Distribution in % Liver / Radioiron Distribution in % Spleen: 10 mg chelator with ⁵⁹Fe, subcutaneous, normal rats; for Radioiron Distribution in % Feces / Radioiron Distribution in % Total excretion / Radioiron Distribution in % Urine: cumulative within 4 days; for Radioiron Distribution in % Blood / Radioiron Distribution in % Liver / Radioiron Distribution in % Spleen: within 4 days. The procedure:
Table 1 describes the fate of ⁵⁹Fe tracer reincubated […] with 10 mg of some of the above iron chelators and then injected subcutaneously to groups of 4 normal rats. Numbers represent mean cumulative radioiron excretion within 4 days of injection. For comparison, spontaneous excretion of radioiron and the excretion of desferrioxamine (DF) bound radioiron are also given. […]
Spleen and kidney were counted as whole organs.
The excretion of radioiron following ⁵⁹Fe labelling was measured in animals confined to solitary metabolic cages with stainless steel grid bottoms, and stool and urine were collected separately.

The nature of test [2]: Mobilization of iron from hepatic parenchymal stores in hypertransfused rats labelled with ⁵⁹Fe-ferritin. The test is classed as in vivo. To be noted: hypertransfused rats, 40 mg per animal, single subcutaneous injection. The protocol:
In each case, 40 mg of each compound was administered per animal in a single subcutaneous injection.
In vivo studies of chelating efficiency were performed in two models: (a) normal rats injected i.p. with 10 mg of either desferrioxamine B (DF), PIH of the prior art, PPH of Example 4 or PPHE from Example 5 labelled in vitro with ⁵⁹Fe; and (b) hypertransfused rats receiving twice 4 ml/100gm packed RBC intravenously 5 and 3 days prior to study (hematocrit 68%) and labelled with ⁵⁹Fe-ferritin injected i.v. 24h prior to iron chelating therapy as described previously. Drugs to be tested in the ⁵⁹Fe-ferritin model were given either by i.p. injection or by gastric tube at a dose of 40 mg per animal. Radioiron excretion and organ distribution were determined after 4 days
The radioactivity of spleen, weighed portions of the liver, and 1 ml samples of blood were determined in an automatic well type scintillation counter (Packard Autogamma Model 5360 Scintillation spectrometer). Spleen and kidney were counted as whole organs.
Whole body counts were performed in a small animal counter (Packard Model 446 Armac) scintillation detector. The excretion of radioiron following ⁵⁹Fe labelling was measured in animals confined to solitary metabolic cages with stainless steel grid bottoms, and stool and urine were collected separately.

A further test concerns Leukemia P 388. In words: Leukemia P 388 survival in mice. To be noted: 1 mg/kg i.p., days 1, 2, 3, 4. The format is in vivo, Mice: female B6D2F1.
In test [3] the target is T1, Ribonucleoside Diphosphate Reductase (RdR) (Homo sapiens, UniProt P31350).
T1 sequence (P31350 1-389): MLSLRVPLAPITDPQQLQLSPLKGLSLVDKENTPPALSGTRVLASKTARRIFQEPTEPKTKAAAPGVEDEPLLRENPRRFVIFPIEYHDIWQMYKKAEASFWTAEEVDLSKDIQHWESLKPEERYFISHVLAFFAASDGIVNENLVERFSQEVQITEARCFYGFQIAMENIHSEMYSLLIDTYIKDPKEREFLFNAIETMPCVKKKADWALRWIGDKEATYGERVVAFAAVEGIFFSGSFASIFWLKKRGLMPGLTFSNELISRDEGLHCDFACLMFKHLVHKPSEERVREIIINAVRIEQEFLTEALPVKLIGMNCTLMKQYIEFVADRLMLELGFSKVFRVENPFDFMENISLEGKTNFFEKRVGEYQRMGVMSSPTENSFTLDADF
In words: Inhibition of ribonucleotide diphosphate reductase. The format is biochemical.

Test [4] has as its system chloroquine-resistant strain of P. falciparum (FCR-3). The procedure: Cultures of a chloroquine-resistant strain of P. falciparum (FCR-3), cultivated in human erythrocytes (a technique widely used at the Kuvin Centre, Hebrew University Hadassah Medical School), were suspended in solutions containing chelators and then cultured for 3 days. Growth of parasites was determined by either slide counts or by incorporation of ³H-hypoxanthine. The parasite growth was monitored by microscopic slide counts. […]

This is an account of results in patent EP0315434A2, “Pyridoxal hydrazone derivatives their production and use and pharmaceutical compositions containing the same” (YISSUM RESEARCH DEVELOPMENT COMPANY OF THE HEBREW …, priority 1987, dated 1989).

Read-outs that look alike come from different tables or passages of the source.

For the molecule “1-[N-methylpyridoxylidenium]-2-[methyl pyridiniumn] hydrazine hydroxido iodide [Ex. 2]”, in test [1], the “Radioiron Distribution in % Feces” value was determined as 27.0±2.2%, the “Radioiron Distribution in % Total excretion” value is listed as 66.0±5.3%, the “Radioiron Distribution in % Urine” value stood at 39.0±3.1% and the “Radioiron Distribution in % Blood” value was 13.3±2.3%. Further, in test [1], the “Radioiron Distribution in % Liver” value was determined as 6.8±0.4% and the “Radioiron Distribution in % Spleen” value is recorded as 0.51±0.02%. In addition, in test [2], the “Ferritin-⁵⁹Fe distribution in % Blood” value was 3.0±0.1%, the “Ferritin-⁵⁹Fe distribution in % Feces” value is 58.9±3.0%, the “Ferritin-⁵⁹Fe distribution in % Liver” value came to 35.5±1.7% and the “Ferritin-⁵⁹Fe distribution in % Residual” value was found to be 0%. In test [2], the “Ferritin-⁵⁹Fe distribution in % Spleen” value stood at 0.4±0.1% and the “Ferritin-⁵⁹Fe distribution in % Urine” value came out at 2.2±0.1%.

In the case of `Cc1c(O)c(C=NNC(=O)c2cc[n+](C)cc2)c(CO)c[n+]1C.[I-].[I-]` [Comparative Compound B, 1-[N-methylpyridoxylidenium]-2-[N′-isonicotinoylium] hydrazine dimethiodide, reference compound], in test [1], the “Radioiron Distribution in % Feces” value turned out to be 8.6±0.3%, the “Radioiron Distribution in % Total excretion” value worked out at 39.2±1.6%, the “Radioiron Distribution in % Urine” value was found to be 30.6±1.12% and the “Radioiron Distribution in % Blood” value was 25.1±2.2%. In test [1], the “Radioiron Distribution in % Liver” value is reported as 8.2±0.8% and the “Radioiron Distribution in % Spleen” value is given as 0.36±0.03%.

Turning to `COc1cccc2c1C(=O)c1c(O)c3c(c(O)c1C2=O)C[C@@](O)(C(C)=O)C[C@@H]3O[C@H]1C[C@H](N)[C@H](O)[C@H](C)O1` [Daunorubicin, daunorubicin, reference compound], in the test with Leukemia P 388, the “Survivors on Day 20” value is 0/10. The “Activity T/C x 100” value in the test on Leukemia P 388 (mean survival time treated / controls) worked out at 154.

Regarding `Cc1ncc(CO)c(C=NNc2cnccn2)c1O` [Ex. 6, 1-[2′-pyrazyl]-2-[pyridoxylidene] hydrazine], the “Inhibition of Ribonucleoside Diphosphate Reductase (RdR) %” value is 64% in test [3] (dose 1 x 10⁻⁵ M), 81% in test [3] (dose 10 x 10⁻⁵ M) and 83% in test [3] (dose 100 x 10⁻⁵ M).

Turning to `Cc1ncc(CO)c(C=NNc2ccccn2)c1O.O=S(=O)([O-])[O-].[Cu+2]` [Ex. 7], the “INHIBITION OF GROWTH OF DRUG-RESISTANT STRAIN OF P. falciparum % INHIBITION” value in test [4] (molar concentration 1 x 10⁻¹², after 2 hours of exposure) is recorded as 100 ^(**) %.

For `Cc1ncc(CO)c(C=NNC(=O)c2cc[n+](C)cc2)c1O.[I-]` [Ex. A, 1-[pyridoxylidene]-2-[N-methylisonicotinoylium] hydrazine iodide, reference compound], the “INHIBITION OF GROWTH OF DRUG-RESISTANT STRAIN OF P. falciparum % INHIBITION” value in test [4] (molar concentration 2 x 10⁻⁵, cultured 3 days) came to 16.6%. In test [1], the “Radioiron Distribution in % Feces” value turned out to be 22.7±1.1%, the “Radioiron Distribution in % Total excretion” value came out at 26.4±1.3%, the “Radioiron Distribution in % Urine” value is on record as 3.7±0.2% and the “Radioiron Distribution in % Blood” value came out at 33.3±2.1%. Moreover, in test [1], the “Radioiron Distribution in % Liver” value is listed as 12.8±0.2% and the “Radioiron Distribution in % Spleen” value is on record as 0.56±0.02%. Besides, the “TOTAL EXCRETION OF RADIO-IRON IN RATS %” value in test [1] (as in Table 1) is recorded as 26.4± 1.3%.

Turning to `NC(=O)NO` [Hydroxyurea, reference compound], the “Inhibition of Ribonucleoside Diphosphate Reductase (RdR) %” value in test [3] (dose 1 x 10⁻⁵ M) came out at 15%; in test [3] (dose 10 x 10⁻⁵ M), 37%; in test [3] (dose 100 x 10⁻⁵ M), 73%.
